In US9278950B2, “Bicyclic aromatic carboxamide compounds useful as Pim kinase inhibitors” (Incyte Corporation, priority 2013, dated 2016):

What was measured:
Type in all cases: biochemical
Pim2 = biological target: T1, Pim2 (Homo sapiens, UniProt Q9P1W9); test: Pim-2 kinase assay (Pim enzyme assays, Example A); settings: 1 mM ATP; read-out: Pim2 IC50
T1 construct: purchased Invitrogen PV3649
Protocol: Pim-2 kinase assay—20 μL reactions were run in white 384 well polystyrene plates dotted with 0.8 μL compound/DMSO in the assay buffer (50 mM Tris, pH 7.5, 0.01% Tween-20, 5 mM mgCl2, 0.01% BSA, 5 mM DTT), containing 0.05 μM Fluorescein-labeled CREBtide peptide substrate (Invitrogen PV3508), 1 mM ATP, and 1 nM enzyme (Invitrogen PV3649) for 2 h at 25° C. Reactions were stopped by addition of 10 μL TR-FRET Dilution Buffer (Invitrogen PV3574) with 30 mM EDTA and 1.5 nM LanthaScreen Tb-CREB pSer133 antibody (Invitrogen PV3566). After 30 min. incubation at room temperature, plates were read on a PHERAstar FS plate reader (BMG Labtech).

Pim-1 = biological target: T2, Pim-1 (Homo sapiens, UniProt P11309); test: Pim-1 kinase assay (Pim enzyme assays, Example A); settings: 1 mM ATP; read-out: Pim1 IC50
T2 construct: purchased Invitrogen PV3503
Protocol: (§1) Pim-1 and Pim-3 kinase assays-20 μL reactions were run in white 384 well polystyrene plates dotted with 0.8 μL compound/DMSO in the assay buffer (50 mM Tris, pH 7.5, 0.01% Tween-20, 5 mM mgCl2, 0.01% BSA, 5 mM DTT), containing 0.05 μM Biotin-labeled BAD peptide substrate (AnaSpec 62269), 1 mM ATP, and […] (Pim-1, Invitrogen PV3503) or […] (Pim-3, Millipore 14-738) enzyme for 1 h at 25° C. Reactions were stopped by addition of 10 μL STOP Buffer (150 mM Tris, pH=7.5, 150 mM NaCl, 75 mM EDTA, 0.01% Tween-20, 0.3% BSA,) supplemented with Phospho-Bad (Ser 12) Antibody (Cell Signaling 9291) diluted 666-fold, and Streptavidin donor beads (PerkinElmer 6760002) along with Protein-A acceptor beads (PerkinElmer 6760137) at 15 μg/mL each. Supplementation of the STOP buffer with beads and stopping the reactions were done under reduced light. Prior to the stopping reactions STOP buffer with beads was preincubated for 1 h in the dark at room temperature. After stopping the reactions, plates were incubated for 1 h in the dark at room temperature before reading on a PHERAstar FS plate reader (BMG Labtech) under reduced light.

Pim-3 = biological target: T3, Pim-3 (Homo sapiens, UniProt Q86V86); test: Pim-3 kinase assay (Pim enzyme assays, Example A); settings: 1 mM ATP; read-out: Pim3 IC50
T3 construct: purchased Millipore 14-738
Protocol: as §1

T1 sequence (Q9P1W9 whole entry): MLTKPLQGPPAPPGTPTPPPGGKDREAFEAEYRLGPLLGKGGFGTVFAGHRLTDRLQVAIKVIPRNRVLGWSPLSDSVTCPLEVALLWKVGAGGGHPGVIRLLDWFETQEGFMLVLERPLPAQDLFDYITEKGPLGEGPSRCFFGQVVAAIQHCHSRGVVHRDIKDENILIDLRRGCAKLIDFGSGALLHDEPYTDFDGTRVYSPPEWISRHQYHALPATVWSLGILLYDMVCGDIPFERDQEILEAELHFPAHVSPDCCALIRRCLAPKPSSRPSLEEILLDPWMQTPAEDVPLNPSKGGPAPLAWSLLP
T2 sequence (P11309 whole entry): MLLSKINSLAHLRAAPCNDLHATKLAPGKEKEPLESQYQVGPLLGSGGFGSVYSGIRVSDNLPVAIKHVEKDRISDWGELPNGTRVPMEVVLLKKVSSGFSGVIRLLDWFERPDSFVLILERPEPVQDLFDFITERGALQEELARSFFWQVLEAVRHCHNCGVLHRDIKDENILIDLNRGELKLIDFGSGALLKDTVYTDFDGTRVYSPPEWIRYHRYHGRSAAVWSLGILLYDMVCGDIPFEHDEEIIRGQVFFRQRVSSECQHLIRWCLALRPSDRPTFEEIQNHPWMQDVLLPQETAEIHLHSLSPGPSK

| SMILES | IC50 (Pim2) | IC50 (Pim-1) | IC50 (Pim-3) |
| --- | --- | --- | --- |
| Nc1cc2ccc(CN3CCOCC3)cc2nc1C(=O)Nc1cnccc1N1CCC[C@H](N)C1 [Example 21, 3-Amino-N-{4-[(3S)-3-aminopiperidin-1-yl]pyridin-3-yl}-7-(morpholin-4-ylmethyl)quinoline-2-carboxamide] | 100 to 1000 nM | ≤ 100 nM | ≤ 100 nM |
| CCc1ccc2cc(N)c(C(=O)Nc3cnccc3C3CCCC(N)C3)nc2c1 (stereo not drawn) [Example 23, 3-Amino-N-[4-(3-aminocyclohexyl)pyridin-3-yl]-7-ethylquinoline-2-carboxamide] | 100 to 1000 nM | ≤ 100 nM | ≤ 100 nM |
| CCc1ccc2cc(N)c(C(=O)Nc3cnc4c(c3N3CCC[C@H](N)C3)CCO4)nc2c1 [Example 24, (S)-3-Amino-N-(4-(3-aminopiperidin-1-yl)-2,3-dihydrofuro[2,3-b]pyridin-5-yl)-7-ethylquinoline-2-carboxamide] | 100 to 1000 nM | ≤ 100 nM | ≤ 100 nM |
| CCc1ccc2cc(N)c(C(=O)Nc3cncc(C)c3N3C[C@@H](N)[C@H](O)[C@@H](C)C3)nc2c1 [Example 28, 3-Amino-N-{4-[(3R,4R,5S)-3-amino-4-hydroxy-5-methylpiperidin-1-yl]-5-methylpyridin-3-yl}-7-ethylquinoline-2-carboxamide] | ≤ 100 nM | ≤ 100 nM | ≤ 100 nM |
| CCc1ccc2cc(N)c(C(=O)Nc3cnccc3N3C[C@@H](N)[C@H](O)[C@@H](C)C3)nc2c1 [Example 29, 3-Amino-N-{4-[(3R,4R,5S)-3-amino-4-hydroxy-5-methylpiperidin-1-yl]pyridin-3-yl}-7-ethylquinoline-2-carboxamide] | ≤ 100 nM | ≤ 100 nM | ≤ 100 nM |
| CCc1ccc2cc(N)c(C(=O)Nc3cncc(C)c3N3CCC[C@H](N)C3)nc2c1 [Example 30, 3-Amino-N-{4-[(3S)-3-aminopiperidin-1-yl]-5-methylpyridin-3-yl}-7-ethylquinoline-2-carboxamide] | ≤ 100 nM | ≤ 100 nM | ≤ 100 nM |
| CCc1ccc2cc(N)c(C(=O)Nc3cnc(OC)cc3N3CCC[C@H](N)C3)nc2c1 [Example 31, 3-Amino-N-{4-[(3S)-3-aminopiperidin-1-yl]-6-methoxypyridin-3-yl}-7-ethylquinoline-2-carboxamide] | > 2000 nM | > 40 nM | ≤ 100 nM |
| CCc1ccc2cc(N)c(C(=O)Nc3cncc(C#N)c3N3CCC[C@H](N)C3)nc2c1 [Example 32, 3-Amino-N-{4-[(3S)-3-aminopiperidin-1-yl]-5-cyanopyridin-3-yl}-7-ethylquinoline-2-carboxamide] | > 2000 nM | ≤ 100 nM | ≤ 100 nM |
| C[C@H]1CN(c2ccncc2NC(=O)c2nc3cc(N4CCOCC4)ccc3cc2N)C[C@@H](N)[C@@H]1O [Example 33, 3-Amino-N-{4-[(3R,4R,5S)-3-amino-4-hydroxy-5-methylpiperidin-1-yl]pyridin-3-yl}-7-morpholin-4-ylquinoline-2-carboxamide] | 100 to 1000 nM | ≤ 100 nM | ≤ 100 nM |
| C[C@@H]1C[C@H](N)CN(c2ccncc2NC(=O)c2nc3cc(N4CCOCC4)ccc3cc2N)C1 [Example 34, 3-Amino-N-{4-[(3S,5R)-3-amino-5-methylpiperidin-1-yl]pyridin-3-yl}-7-morpholin-4-ylquinoline-2-carboxamide] | ≤ 100 nM | ≤ 100 nM | ≤ 100 nM |
| Nc1cc2ccc(N3CCOCC3)cc2nc1C(=O)Nc1cnccc1N1C[C@@H](N)C[C@@H](C(F)(F)F)C1 [Example 35, 3-Amino-N-{4-[(3S,5R)-3-amino-5-(trifluoromethyl)piperidin-1-yl]pyridin-3-yl}-7-morpholin-4-ylquinoline-2-carboxamide] | 100 to 1000 nM | ≤ 100 nM | ≤ 100 nM |
| C[C@@H]1C[C@H](N)CN(c2ccncc2NC(=O)c2nc3cc(N4CCN(C)CC4)ccc3cc2N)C1 [Example 36, 3-Amino-N-{4-[(3S,5R)-3-amino-5-methylpiperidin-1-yl]pyridin-3-yl}-7-(4-methylpiperazin-1-yl)quinoline-2-carboxamide] | ≤ 100 nM | ≤ 100 nM | ≤ 100 nM |
| CN1CCN(c2ccc3cc(N)c(C(=O)Nc4cnccc4N4C[C@@H](N)C[C@@H](C(F)(F)F)C4)nc3c2)CC1 [Example 37, 3-Amino-N-{4-[(3S,5R)-3-amino-5-(trifluoromethyl)piperidin-1-yl]pyridin-3-yl}-7-(4-methylpiperazin-1-yl)quinoline-2-carboxamide] | 100 to 1000 nM | ≤ 100 nM | ≤ 100 nM |
| C[C@H]1CN(c2ccncc2NC(=O)c2nc3cc(N4CCN(C)CC4)ccc3cc2N)C[C@@H](N)[C@@H]1O [Example 38, 3-Amino-N-{4-[(3R,4R,5S)-3-amino-4-hydroxy-5-methylpiperidin-1-yl]pyridin-3-yl}-7-(4-methylpiperazin-1-yl)quinoline-2-carboxamide] | ≤ 100 nM | ≤ 100 nM | ≤ 100 nM |
| Nc1cc2ccc(C3CCOCC3)cc2nc1C(=O)Nc1cnccc1N1C[C@@H](N)C[C@@H](C(F)(F)F)C1 [Example 39, 3-Amino-N-{4-[(3S,5R)-3-amino-5-(trifluoromethyl)piperidin-1-yl]pyridin-3-yl}-7-(tetrahydro-2H-pyran-4-yl)quinoline-2-carboxamide] | ≤ 100 nM | ≤ 100 nM | ≤ 100 nM |
| C[C@@H]1C[C@H](N)CN(c2ccncc2NC(=O)c2nc3cc(C4CCOCC4)ccc3cc2N)C1 [Example 40, 3-Amino-N-{4-[(3S,5R)-3-amino-5-methylpiperidin-1-yl]pyridin-3-yl}-7-(tetrahydro-2H-pyran-4-yl)quinoline-2-carboxamide] | ≤ 100 nM | ≤ 100 nM | ≤ 100 nM |
| C[C@H]1CN(c2ccncc2NC(=O)c2nc3cc(C4CCOCC4)ccc3cc2N)C[C@@H](N)[C@@H]1O [Example 41, 3-Amino-N-{4-[(3R,4R,5S)-3-amino-4-hydroxy-5-methylpiperidin-1-yl]pyridin-3-yl}-7-(tetrahydro-2H-pyran-4-yl)quinoline-2-carboxamide] | ≤ 100 nM | ≤ 100 nM | ≤ 100 nM |
| C[C@H]1CN(c2ccncc2NC(=O)c2nc3cc(C4CCN(C)CC4)ccc3cc2N)C[C@@H](N)[C@@H]1O [Example 42, 3-Amino-N-{4-[(3R,4R,5S)-3-amino-4-hydroxy-5-methylpiperidin-1-yl]pyridin-3-yl}-7-(1-methylpiperidin-4-yl)quinoline-2-carboxamide] | ≤ 100 nM | ≤ 100 nM | ≤ 100 nM |
| C[C@@H]1C[C@H](N)CN(c2ccncc2NC(=O)c2nc3cc(C4CCN(C)CC4)ccc3cc2N)C1 [Example 43, 3-Amino-N-{4-[(3S,5R)-3-amino-5-methylpiperidin-1-yl]pyridin-3-yl}-7-(1-methylpiperidin-4-yl)quinoline-2-carboxamide] | ≤ 100 nM | ≤ 100 nM | ≤ 100 nM |
| CN1CCC(c2ccc3cc(N)c(C(=O)Nc4cnccc4N4C[C@@H](N)C[C@@H](C(F)(F)F)C4)nc3c2)CC1 [Example 44, 3-Amino-N-{4-[(3S,5R)-3-amino-5-(trifluoromethyl)piperidin-1-yl]pyridin-3-yl}-7-(1-methylpiperidin-4-yl)quinoline-2-carboxamide] | ≤ 100 nM | ≤ 100 nM | ≤ 100 nM |
